# From patent US7741354B2, “Inhibitors of glutaminyl cyclase” (Probiodrug AG, priority 2006, dated 2010)
# Target: hQC (Homo sapiens, UniProt Q16769)
# Test: Fluorometric (fluorescent) assay of hQC inhibition, IC50
# Assay type: biochemical
# Settings: hQC inhibition; read-out: IC50
# Method: All compounds were immediately tested regarding their activity as hQC inhibitors.
# The purity of the compounds was determined by HPLC-MS. The IC50 value against hQC was measured using the fluorescent assay.
# All measurements were performed with a BioAssay Reader HTS-7000Plus for microplates (Perkin Elmer) at 30° C. QC activity was evaluated fluorometrically using H-Gln-βNA. The samples consisted of 0.2 mM fluorogenic substrate, 0.25 U pyroglutamyl aminopeptidase (Unizyme, Horsholm, Denmark) in 0.2 M Tris/HCl, pH 8.0 containing 20 mM EDTA and an appropriately diluted aliquot of QC in a final volume of 250 μl. Excitation/emission wavelengths were 320/410 nm. The assay reactions were initiated by addition of glutaminyl cyclase. QC activity was determined from a standard curve of β-naphthylamine under assay conditions. One unit is defined as the amount of QC catalyzing the formation of 1 μmol pGlu-βNA from H-Gln-βNA per minute under the described conditions.
# In a second fluorometric assay, QC was activity determined using H-Gln-AMC as substrate. Reactions were carried out at 30° C. utilizing the NOVOStar reader for microplates (BMG labtechnologies). The samples consisted of varying concentrations of the fluorogenic substrate, 0.1 U pyroglutamyl aminopeptidase (Qiagen) in 0.05 M Tris/HCl, pH 8.0 containing 5 mM EDTA and an appropriately diluted aliquot of QC in a final volume of 250 μl. Excitation/emission wavelengths were 380/460 nm. The assay reactions were initiated by addition of glutaminyl cyclase. QC activity was determined from a standard curve of 7-amino-4-methylcoumarin under assay conditions. The kinetic data were evaluated using GraFit sofware.
# For inhibitor testing, the sample composition was the same as described above, except of the putative inhibitory compound added. For a rapid test of QC-inhibition, samples contained 4 mM of the respective inhibitor and a substrate concentration at 1 KM. For detailed investigations of the inhibition and determination of Ki-values, influence of the inhibitor on the auxiliary enzymes was investigated first. […] The inhibitory constant was evaluated by fitting the set of progress curves to the general equation for competitive inhibition using GraFit software.
# hQC, sequence (Q16769 29-361): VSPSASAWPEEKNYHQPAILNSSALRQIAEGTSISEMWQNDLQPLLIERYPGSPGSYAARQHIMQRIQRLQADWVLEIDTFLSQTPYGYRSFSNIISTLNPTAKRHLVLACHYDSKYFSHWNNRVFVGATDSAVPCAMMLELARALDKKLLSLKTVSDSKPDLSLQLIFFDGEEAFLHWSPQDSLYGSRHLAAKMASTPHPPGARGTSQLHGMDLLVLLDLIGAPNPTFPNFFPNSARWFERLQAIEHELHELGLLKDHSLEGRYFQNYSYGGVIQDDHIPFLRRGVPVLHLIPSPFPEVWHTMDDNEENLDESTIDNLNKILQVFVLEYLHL
row,SMILES,IC50 [µM]
1,O=[N+]([O-])c1ccc(-n2nnnc2C(Nc2ccc3[nH]cnc3c2)c2csc3ccccc23)cc1 (centres unmarked) [compound 206],8.5
2,"Brc1cc(Br)cc(C(Nc2ccc3[nH]cnc3c2)c2nnnn2Cc2ccccc2)c1 (centres unmarked) [compound 190, (1H-Benzoimidazol-5-yl)-[(1-benzyl-1H-tetrazol-5-yl)-(3,5-dibromo-phenyl)-methyl]-amine]",1.3
3,"CC(CC(Nc1ccc2[nH]cnc2c1)c1nnnn1-c1ccc(Oc2ccccc2)cc1)c1ccccc1 (centres unmarked) [compound 204, (1H-Benzoimidazol-5-yl)-{1-[1-(4-phenoxy-phenyl)-1H-tetrazol-5-yl]-3-phenyl-butyl}-amine]",6.7
4,"O=C(Cn1nnnc1C(Nc1ccc2[nH]cnc2c1)c1cccs1)N1CCc2ccccc2C1 (centres unmarked) [compound 120, 2-{5-[(1H-Benzoimidazol-5-ylamino)-thiophen-2-yl-methyl]-tetrazol-1-yl}-1-(3,4-dihydro-1H-isoquinolin-2-yl)-ethanone]",8.5
5,"C/C=C/C=C/C(Nc1ccc2[nH]cnc2c1)c1nnnn1CCc1cccs1 (centres unmarked) [compound 161, (1H-Benzoimidazol-5-yl)-{(2E,4E)-1-[1-(2-thiophen-2-yl-ethyl)-1H-tetrazol-5-yl]-hexa-2,4-dienyl}-amine]",5.8
6,CCOC(=O)C1CCCCC1n1nnnc1C(Nc1ccc2[nH]cnc2c1)c1ccccc1OC (centres unmarked) [compound 183],8.5
7,CCOC(=O)C1CCCCC1n1nnnc1C(CC(C)c1ccc(C)o1)Nc1ccc2[nH]cnc2c1 (centres unmarked) [compound 202],6.7
8,CCOC(=O)C1CCCCC1n1nnnc1C(Nc1ccc2[nH]cnc2c1)c1csc2ccccc12 (centres unmarked) [compound 145],1.3
9,"COc1ccc(C(Nc2ccc3[nH]cnc3c2)c2nnnn2-c2ccccc2OCc2ccccc2)cc1 (centres unmarked) [compound 210, (1H-Benzoimidazol-5-yl)-[[1-(2-benzyloxy-phenyl)-1H-tetrazol-5-yl]-(4-methoxy-phenyl)-methyl]-amine]",2.2
10,c1csc(CCn2nnnc2C(Nc2ccc3[nH]cnc3c2)c2ccc3nsnc3c2)c1 (centres unmarked) [compound 181],0.4
11,"Cc1cc(C)cc(C(Nc2ccc3[nH]cnc3c2)c2nnnn2CC(=O)N2CCc3ccccc3C2)c1 (centres unmarked) [compound 137, 2-{5-[(1H-Benzoimidazol-5-ylamino)-(3,5-dimethyl-phenyl)-methyl]-tetrazol-1-yl}-1-(3,4-dihydro-1H-isoquinolin-2-yl)-ethanone]",4.9
12,CC(C)(C)n1nnnc1C(Nc1ccc2[nH]cnc2c1)c1csc2ccccc12 (centres unmarked) [compound 123],8.5
13,"O=c1c(C(Nc2ccc3[nH]cnc3c2)c2nnnn2CCc2cccs2)coc2ccccc12 (centres unmarked) [compound 122, 3-{(1H-Benzoimidazol-5-ylamino)-[1-(2-thiophen-2-yl-ethyl)-1H-tetrazol-5-yl]-methyl}-chromen-4-one]",4.9

# More lines, now with the values ahead:
row,IC50 [µM],SMILES
1,4,CCOC(=O)C1CCCCC1n1nnnc1C(Nc1ccc2[nH]cnc2c1)c1ccc(SC)cc1 (centres unmarked) [compound 150]
2,4.9,"CC1(C)OCC(Cn2nnnc2C(Nc2ccc3[nH]cnc3c2)c2cnc3ccccc3c2)O1 (centres unmarked) [compound 156, (1H-Benzoimidazol-5-yl)-{[1-(2,2-dimethyl-[1,3]dioxolan-4-ylmethyl)-1H-tetrazol-5-yl]-quinolin-3-yl-methyl}-amine]"
3,3.1,"CCc1ccc(C(Nc2ccc3[nH]cnc3c2)c2nnnn2Cc2ccccc2)s1 (centres unmarked) [compound 133, (1H-Benzoimidazol-5-yl)-[(1-benzyl-1H-tetrazol-5-yl)-(5-ethyl-thiophen-2-yl)-methyl]-amine]"
4,4,"COc1ccc(C(Nc2ccc3[nH]cnc3c2)c2nnnn2CC(=O)OC(C)(C)C)cc1 (centres unmarked) [compound 172, {5-[(1H-Benzoimidazol-5-ylamino)-(4-methoxy-phenyl)-methyl]-tetrazol-1-yl}-acetic acid tert-butyl ester]"
5,2.2,"O=C(Cn1nnnc1C(Nc1ccc2[nH]cnc2c1)c1ccc(Br)cc1)N1CCc2ccccc2C1 (centres unmarked) [compound 199, 2-{5-[(1H-Benzoimidazol-5-ylamino)-(4-bromo-phenyl)-methyl]-tetrazol-1-yl}-1-(3,4-dihydro-1H-isoquinolin-2-yl)-ethanone]"
6,5.8,"Fc1ccc2c(C(Nc3ccc4[nH]cnc4c3)c3nnnn3CC3CCCO3)c[nH]c2c1 (centres unmarked) [compound 144, (1H-Benzoimidazol-5-yl)-{(6-fluoro-1H-indol-3-yl)-[1-(tetrahydro-furan-2-ylmethyl)-1H-tetrazol-5-yl]-methyl}-amine]"
7,8.5,"CCc1ccc(C(Nc2ccc3[nH]cnc3c2)c2nnnn2CC2CCCO2)s1 (centres unmarked) [compound 129, (1H-Benzoimidazol-5-yl)-{(5-ethyl-thiophen-2-yl)-[1-(tetrahydro-furan-2-ylmethyl)-1H-tetrazol-5-yl]-methyl}-amine]"
8,6.7,"CSc1ccc(C(Nc2ccc3[nH]cnc3c2)c2nnnn2CC2CCCO2)cc1 (centres unmarked) [compound 140, (1H-Benzoimidazol-5-yl)-{(4-methylsulfanyl-phenyl)-[1-(tetrahydro-furan-2-ylmethyl)-1H-tetrazol-5-yl]-methyl}-amine]"
9,4,"COc1ccc(C(Nc2ccc3[nH]cnc3c2)c2nnnn2CC(=O)N2CCc3ccccc3C2)cc1 (centres unmarked) [compound 209, 2-{5-[(1H-Benzoimidazol-5-ylamino)-(4-methoxy-phenyl)-methyl]-tetrazol-1-yl}-1-(3,4-dihydro-1H-isoquinolin-2-yl)-ethanone]"
10,6.7,c1nc2cc(NC(c3ccc4c(c3)OCO4)c3nnnn3CC3CCCO3)ccc2[nH]1 (centres unmarked) [compound 118]
11,2.2,Clc1ccccc1Cn1nnnc1C(Nc1ccc2[nH]cnc2c1)c1ccc2nsnc2c1 (centres unmarked) [compound 205]

# Same assay, conditions: purified compound from preparative synthesis; fluorescent assay; read-out: IC50 hQC
row,IC50 [µM],SMILES
1,2.88,"CN(C)CCn1nnnc1C(NCCCn1ccnc1)C1CCC=CO1 (centres unmarked) [Compound 38, {(3,4-Dihydro-2H-pyran-2-yl)-[1-(2-dimethylamino-ethyl)-1H-tetrazol-5-yl]-methyl}-(3-imidazol-1-yl-propyl)-amine]"
2,2.37,"Cc1ccc(O)c(C(NCCCn2ccnc2)c2nnnn2CC(C)(C)C)c1 (centres unmarked) [Compound 63, 2-[[1-(2,2-Dimethyl-propyl)-1H-tetrazol-5-yl]-(3-imidazol-1-yl-propylamino)-methyl]-4-methyl-phenol]"

# Same assay, conditions: read-out: IC50
row,SMILES,IC50 [µM]
1,"CN(C)CCn1nnnc1C(NCCCn1ccnc1)C1CCC=CO1 (centres unmarked) [Compound 38, {(3,4-Dihydro-2H-pyran-2-yl)-[1-(2-dimethylamino-ethyl)-1H-tetrazol-5-yl]-methyl}-(3-imidazol-1-yl-propyl)-amine]",0.4
2,"Cc1ccc(O)c(C(NCCCn2ccnc2)c2nnnn2CC(C)(C)C)c1 (centres unmarked) [Compound 63, 2-[[1-(2,2-Dimethyl-propyl)-1H-tetrazol-5-yl]-(3-imidazol-1-yl-propylamino)-methyl]-4-methyl-phenol]",0.04
3,"c1ccc2nc(C(NCCCn3ccnc3)c3nnnn3C[C@@H]3CCCO3)ccc2c1 (stereo partly drawn) [compound 14, (3-Imidazol-1-yl-propyl)-(quinolin-2-yl-{1-[(S)-1-(tetrahydro-furan-2-yl)methyl]-1H-tetrazol-5-yl}-methyl)-amine]",2.2
4,"CSCCC(Nc1ccc2[nH]cnc2c1)c1nnnn1C(c1ccccc1)c1ccccc1 (centres unmarked) [compound 95, [1-(1-Benzhydryl-1H-tetrazol-5-yl)-3-methylsulfanyl-propyl]-(1H-benzoimidazol-5-yl)-amine]",4.9
5,"COC(=O)Cn1nnnc1C(NCCCn1ccnc1)c1cc(C)ccc1O (centres unmarked) [compound 51, {5-[(2-Hydroxy-5-methyl-phenyl)-(3-imidazol-1-yl-propylamino)-methyl]-tetrazol-1-yl}-acetic methyl ester]",2.2
6,"COc1ccc(C(Nc2ccc3[nH]cnc3c2)c2nnnn2Cc2ccc(Cl)cc2)c(C)c1 (centres unmarked) [compound 75, (1H-Benzoimidazol-5-yl)-[[1-(4-chloro-benzyl)-1H-tetrazol-5-yl]-(4-methoxy-2-methyl-phenyl)-methyl]-amine]",2.2
7,CCCCn1nnnc1C(NCCCn1ccnc1)c1cc2ccccc2o1 (centres unmarked) [compound 23],9.4
8,CC(Cc1ccc2c(c1)OCO2)C(Nc1ccc2[nH]cnc2c1)c1nnnn1Cc1ccccc1Cl (centres unmarked) [compound 113],3.1
9,"C1=CO[C@H](C(NCCCn2ccnc2)c2nnnn2C2CC2)CC1 (stereo partly drawn) [compound 71, [(S)-(1-Cyclopropyl-1H-tetrazol-5-yl)-3,4-dihydro-2H-pyran-2-yl-methyl]-(3-imidazol-1-yl-propyl)-amine]",9.4
10,"COC(=O)Cn1nnnc1C(NCCCn1ccnc1)c1ccc(Cl)c(Cl)c1 (centres unmarked) [compound 50, {5-[(3,4-Dichloro-phenyl)-(3-imidazol-1-yl-propylamino)-methyl]-tetrazol-1-yl}-acetic methyl ester]",4

# Continued, values first:
row,IC50 [µM],SMILES
1,1.3,"CC(C)(C)OC(=O)Cn1nnnc1C(Nc1ccc2[nH]cnc2c1)c1ccc(Br)cc1 (centres unmarked) [compound 87, {5-[(1H-Benzoimidazol-5-ylamino)-(4-bromo-phenyl)-methyl]-tetrazol-1-yl}-acetic acid tert-butyl ester]"
2,4.9,"Fc1cc(C(Nc2ccc3[nH]cnc3c2)c2nnnn2C2CCCCC2)ccc1Cl (centres unmarked) [compound 107, (1H-Benzoimidazol-5-yl)-[(4-chloro-3-fluoro-phenyl)-(1-cyclohexyl-1H-tetrazol-5-yl)-methyl]-amine]"
